{"source": "patent US20260191933A1", "about": "“PHARMACEUTICAL COMBINATIONS AND USES THEREOF” (The University of Melbourne, priority 2022, published 2026)", "key": {"[1]": {"tested_on": "ARC CSPG-ECM", "assay": "Intranasal PZ6005 in obese mice: ARC CSPG-ECM expression (WFA immunostaining)", "format": "in vivo, C57BL/6J mice", "details": "for ARC neurofibrosis / area and intensity of ARC CSPG-ECM: obese mice, intranasal 14 days, 1 or 5 mg/animal/day", "procedure": "(§1) All image quantification was performed in Image J (NIH) software (NIH, MA). Raw images underwent background subtraction using a rolling ball algorithm to minimize background and any potential variance in tissue autofluorescence. To quantify area and intensity of the CSPG-ECM within each brain region (ARC, VMH or RSG cortex) images were thresholded and binarized to create a region of interest (ROI) mask of only the CSPG-ECM. For each brain area, CSPG-ECM ROI area (μm^2) and intensity (sum of all pixel intensities within the ROI) was calculated. This process was automated to minimise bias and to account for differences in brain nuclei size across multiple images. Brain nuclei were defined in accordance with the Paxinos and Franklin mouse brain atlas (http://labs.gaidi.ca/mouse-brain-atlas/). The area and intensity of CSPG-ECM within each region was normalised to the respective control."}, "[2]": {"tested_on": "ARC CSPG-ECM", "assay": "I.C.V. PZ6005 and/or S.C. liraglutide, 28-day treatment: ARC CSPG-ECM (WFA)", "format": "in vivo, C57BL/6j mice", "details": "PZ6005 100 μg/animal I.C.V. every other day first 14 days; liraglutide 200 μg/kg/day S.C. 28 days", "procedure": "as §1"}, "[3]": {"tested_on": "12-week obese AgRP-Cas9 mice", "assay": "I.C.V. fluorosamine in obese AgRP-Cas9 mice given AAV-gScrambled or AAV-gIR", "format": "in vivo", "procedure": "To disassemble the CSPG-ECM within the ARC, mice received bilaterally (unless stated otherwise) administration of 15 mU/side of active chABC (C3667, Sigma, St. Louis, […], dissolved in 1 M trehalose) or heat-inactivated chABC protein as a vehicle (chABC in 1 M trehalose was heat-inactivated at 85° C. for 45 mins, as described previously by Alonge et al., 2020) in a total volume of 150 nl/side. To pulse the CSPG-ECM within the ARC or RSG, mice received bilateral (unless stated otherwise) administration of biotinylated WFA (0.3 μg/side, in a volume of 150 nl). To disrupt IR in AgRP neurons, 12-week HFHS fed AgRP-Cas9 mice were stereotaxically injected with AAVs expressing U6-driven guide RNA's targeting the InsR gene or a scrambled sequence (5′ GTGTAGTTCGACCATTCGTG ′3 (SEQ ID NO: 14)) alongside a CAG driven mCherry FLEX switch. Unless otherwise stated injections were bilaterally into the ARC (coordinates, bregma: anterior-posterior, −1.70 mm; dorsal-ventral, −5.85 mm; lateral, +/−0.18 mm, 200 nl/side) or into the RSG (coordinates, bregma: anterior-posterior, −1.40 mm; dorsal-ventral, −1.80 mm; lateral, +/−0.50 mm, 200 nl/side). WFA-biotin was injected unilaterally into the cc (coordinates, bregma: anterior-posterior, −1.40 mm; dorsal-ventral, −5.80 mm; lateral, +/−0.20 mm, 200 nl/side)\nTo generate AAV-gScrambled (pAAV-U6>mScramble-[…] (SEQ ID NO: 14))-CAG>LL:rev(mCherry):rev(LL):WPRE) and AAV-gIR (pAAV[-U6>mInsr[gRNA-[…] (SEQ ID NO: 15)]-U6>mInsr[gRNA-[…] (SEQ ID NO: 16)]-CAG>LL:rev(mCherry):rev(LL):WPRE) viral vectors, sgRNAs were first designed using online CRISPR tools (http://crispr.mit.edu and http://chopchop.cbu.uib.no/). […] For AAV-gScrambled a pUp-U6>Scramble gRNA vector was generated using the Gibson assembly of a pDONR P4-P1R backbone and primers 5′ […] ′3 (SEQ ID NO: 17) and 5′ […] ′3 (SEQ ID NO: 18). For AAV-gIR a pUp-U6>mInsr[gRNA-[…] (SEQ ID NO: 15)]-U6>mInsr[gRNA-[…] (SEQ ID NO: 16)] gRNA vector was generated using the Gibson assembly of a AarI digested pUp-U6-gRNA-AarI-Stuffer-AarI backbone and primers 5′ […] ′3 (SEQ ID NO: 19) and 5′ […] ′3 (SEQ ID NO: 20). For both AAV-gScrambled and AAV-gIR the p-Up vectors were cloned alongside pDown-CAG and pTail-LL:rev(mCherry):rev(LL) to generate the final vectors by LR reaction using the Gateway method. AAV vectors were packaged into the AAV-DJ/8 steotype at a titre of >2 10^13 GC/ml). All vector cloning and AAV packaging was carried out by VectorBuilder (Chicago, IL).\nUnder isoflurane anaesthetic 12-week HFHS fed C57BL/6J or AgRP-Cas9 mice were implanted stereotaxically with guide cannulas into the right lateral ventricle (0.2 mm posterior, 1.0 mm lateral from bregma). Guide cannula was positioned 1.3 mm above the injection site (1 mm ventral to the surface of the skull). AgRP-Cas9 mice were treated with either AAV-gScrambled or AAV-gIR and underwent guide cannula placement 7 days post AAV administration. Mice were administered I.C.V. vehicle (ddH2O), fluorosamine (100 μg/animal/day or 250 μgl/animal/day) in a volume of 2 μl/animal and all compounds were delivered approximately 1 h before lights off (7 pm)."}, "[4]": {"details": "intranasal 1 mg/animal/day, 14 days"}, "[5]": {"details": "AAV-gScrambled AgRP-Cas9 mice, 100 μg/animal I.C.V. daily for 10 days"}}, "data": [{"molecule": "CC(=O)NC1C(OC(C)=O)OC(COC(C)=O)[C@@H](F)C1OC(C)=O", "note": "(some centres unmarked) [PZ6005, per-O-acetylated-4-F-N-acetylglucosamine]", "values": [{"measurement": "CSPG-ECM area lower than the controls", "setting": "[1]; [4]", "result": "13.54±1.03", "unit": "%"}, {"measurement": "CSPG-ECM intensity decreased by", "setting": "[1]; [4]", "result": "15.94±7.17", "unit": "%"}, {"measurement": "CSPG-ECM intensity reduced by", "setting": "[1]; intranasal 5 mg/animal/day (highest dose), 14 days", "result": "30.16±1.52", "unit": "%"}, {"measurement": "CSPG-ECM area lower than the controls", "setting": "[1]; intranasal 5 mg/animal/day, 14 days", "result": "13.59±4.09", "unit": "%"}, {"measurement": "ARC neurofibrosis / area and intensity of ARC CSPG-ECM", "setting": "[1]", "result": "robustly diminished"}, {"measurement": "ARC neurofibrosis / area and intensity of ARC CSPG-ECM", "setting": "[1]; listed as fluorosamine", "result": "successfully attenuated"}, {"measurement": "ARC CSPG-ECM intensity reduced by, compared with the mice receiving liraglutide", "setting": "[2]", "result": "22.65±7.851", "unit": "%"}, {"measurement": "CSPG-ECM area lower than liraglutide group", "setting": "[2]", "result": "31.56±3.73", "unit": "%"}, {"measurement": "positive metabolic outcomes", "setting": "[3]; AAV-IR AgRP-Cas9 mice", "result": "mitigated, at least in part"}, {"measurement": "adiposity", "setting": "[3]; [5]", "result": "reduced adiposity"}, {"measurement": "body weight", "setting": "[3]; [5]", "result": "promoted weight loss"}, {"measurement": "caloric intake", "setting": "[3]; [5]", "result": "attenuated caloric intake"}, {"measurement": "energy expenditure", "setting": "[3]; [5]", "result": "enhanced energy expenditure"}, {"measurement": "glycaemic control", "setting": "[3]; [5]", "result": "improved glycaemic control"}]}]}
